ChEMBL document CHEMBL1152576, “E-Combretastatin and E-resveratrol structural modifications: antimicrobial and cancer cell growth inhibitory beta-E-nitrostyrenes” (Bioorg Med Chem, 2009)
Values after ≈ are worked out from the molar mass of the structure shown. Active and inactive are the calls of the source. The rule behind the calls is not given here.

Experiments:
Neisseria gonorrhoeae [1] = assay: Antimicrobial activity against Neisseria gonorrhoeae ATCC 49226 by broth microdilution susceptibility assay; format: functional
OVCAR-3 = assay: Cytotoxicity against human OVCAR-3 cells after 48 hrs by sulforhodamine B assay; format: functional
Neisseria gonorrhoeae [2] = assay: Antimicrobial activity against Neisseria gonorrhoeae ATCC 49226 assessed clear zone of inhibition measured per disk by CLSI disk diffusion susceptibility assay; format: functional
SK-MEL-5 = assay: Cytotoxicity against human SK-MEL-5 cells after 48 hrs by sulforhodamine B assay; format: functional
Cryptococcus neoformans [3] = assay: Antimicrobial activity against Cryptococcus neoformans ATCC 90112 assessed clear zone in inhibition per disk by CLSI disk diffusion susceptibility assay; format: functional
Enterococcus faecalis [4] = assay: Antimicrobial activity against Enterococcus faecalis ATCC 29212 by broth microdilution susceptibility assay; format: functional
[5] = test system: Stenotrophomonas maltophilia; assay: Antimicrobial activity against Stenotrophomonas maltophilia ATCC 13637 assessed clear zone in inhibition per disk by CLSI disk diffusion susceptibility assay; format: functional
A498 = assay: Cytotoxicity against human A498 cells after 48 hrs by sulforhodamine B assay; format: functional
MCF7 = assay: Cytotoxicity against human MCF7 cells after 48 hrs by sulforhodamine B assay; format: functional
Streptococcus pneumoniae [6] = assay: Antimicrobial activity against Streptococcus pneumoniae ATCC 6303 assessed clear zone in inhibition per disk by CLSI disk diffusion susceptibility assay; format: functional
SF-268 = assay: Cytotoxicity against human SF268 cells after 48 hrs by sulforhodamine B assay; format: functional
BXPC-3 = assay: Cytotoxicity against human BxPC3 cells after 48 hrs by sulforhodamine B assay; format: functional
Neisseria gonorrhoeae [7] = assay: Antimicrobial activity against Neisseria gonorrhoeae ATCC 49226 after 24 hrs by broth microdilution susceptibility assay; format: functional; settings: ATCC 49226, 24 h
Enterobacter cloacae [8] = assay: Antimicrobial activity against Enterobacter cloacae ATCC 13047 assessed clear zone in inhibition per disk by CLSI disk diffusion susceptibility assay; format: functional
Cryptococcus neoformans [9] = assay: Antifungal activity against Cryptococcus neoformans ATCC 90112 after 72 hrs by broth microdilution susceptibility assay; format: functional; settings: ATCC 90112, 72 h
NCI-H460 = assay: Cytotoxicity against human NCI-H460 cells after 48 hrs by sulforhodamine B assay; format: functional
[10] = Inhibition of tubulin polymerization
P388 = assay: Cytotoxicity against mouse P388 cells after 48 hrs by sulforhodamine B assay; format: functional; settings: for EC50: P388, 48 h, read-out: ED50 (the source's name)
Staphylococcus aureus [11] = assay: Antimicrobial activity against Staphylococcus aureus ATCC 29213 by broth microdilution susceptibility assay; format: functional
Candida albicans [12] = assay: Antimicrobial activity against Candida albicans ATCC 90028 assessed clear zone in inhibition per disk by CLSI disk diffusion susceptibility assay; format: functional
Enterobacter cloacae [13] = assay: Antimicrobial activity against Enterobacter cloacae ATCC 13047 by broth microdilution susceptibility assay; format: functional
Enterococcus faecalis [14] = assay: Antimicrobial activity against Enterococcus faecalis ATCC 29212 assessed clear zone in inhibition per disk by CLSI disk diffusion susceptibility assay; format: functional
[15] = test system: Stenotrophomonas maltophilia; assay: Antimicrobial activity against Stenotrophomonas maltophilia ATCC 13637 by broth microdilution susceptibility assay; format: functional
Cryptococcus neoformans [16] = assay: Antifungal activity against Cryptococcus neoformans ATCC 90112 after 48 hrs by broth microdilution susceptibility assay; format: functional; settings: ATCC 90112, 48 h
Escherichia coli [17] = assay: Antimicrobial activity against Escherichia coli ATCC 25922 assessed clear zone in inhibition per disk by CLSI disk diffusion susceptibility assay; format: functional
Staphylococcus aureus [18] = assay: Antimicrobial activity against Staphylococcus aureus ATCC 29213 assessed clear zone in inhibition per disk by CLSI disk diffusion susceptibility assay; format: functional
Candida albicans [19] = assay: Antifungal activity against Candida albicans ATCC 90028 after 48 hrs by broth microdilution susceptibility assay; format: functional; settings: ATCC 90028, 48 h
DU-145 = assay: Cytotoxicity against human DU145 cells after 48 hrs by sulforhodamine B assay; format: functional
Micrococcus luteus [20] = assay: Antimicrobial activity against Micrococcus luteus Presque Isle 456 by broth microdilution susceptibility assay; format: functional
Candida albicans [21] = assay: Antifungal activity against Candida albicans ATCC 90028 after 24 hrs by broth microdilution susceptibility assay; format: functional; settings: ATCC 90028, 24 h
SF-295 = assay: Cytotoxicity against human SF295 cells after 48 hrs by sulforhodamine B assay; format: functional
Streptococcus pneumoniae [22] = assay: Antimicrobial activity against Streptococcus pneumoniae ATCC 6303 by broth microdilution susceptibility assay; format: functional
KM-20L2 = assay: Cytotoxicity against human KM20L2 cells after 48 hrs by sulforhodamine B assay; format: functional
Micrococcus luteus [23] = assay: Antimicrobial activity against Micrococcus luteus Presque Isle 456 assessed clear zone in inhibition per disk by CLSI disk diffusion susceptibility assay; format: functional
Escherichia coli [24] = assay: Antimicrobial activity against Escherichia coli ATCC 25922 by broth microdilution susceptibility assay; format: functional

Structure (SMILES)	MIC (Neisseria gonorrhoeae [1])	MIC (Neisseria gonorrhoeae [2])	GI50 (SK-MEL-5)	MIC (Cryptococcus neoformans [3])	MIC (Enterococcus faecalis [4])	MIC [5]	GI50 (A498)	MIC (Streptococcus pneumoniae [6])	GI50 (BXPC-3; BXPC-3, 48 h)	MIC (Enterobacter cloacae [8])	GI50 (NCI-H460; NCI-H460, 48 h)	IC50 [10]	EC50 (P388)	MIC (Candida albicans [12])	MIC (Enterococcus faecalis [14])	MIC (Escherichia coli [17])	MIC (Staphylococcus aureus [18])	GI50 (DU-145; DU-145, 48 h)	GI50 (KM-20L2; KM-20L2, 48 h)	MIC (Micrococcus luteus [23])	other results
COc1cc(/C=C/[N+](=O)[O-])cc(OC)c1OC	4 µg/mL (≈ 16.7 µM)	0.78 µg	inactive	3.12 µg	> 64 µg/mL	>100 µg	inactive	3.12 µg	1.4 µg/mL (≈ 5.85 µM)	>100 µg	1.1 µg/mL (≈ 4.6 µM)	4.5 µM	1.1 µg/mL (≈ 4.6 µM)	3.12 µg	50 µg	>100 µg	12.5 µg	1 µg/mL (≈ 4.18 µM)	1.3 µg/mL (≈ 5.43 µM)	25 µg	GI50 (OVCAR-3; OVCAR-3, 48 h): 0.42 µg/mL (≈ 1.76 µM); GI50 (MCF7): inactive; GI50 (SF-268): inactive; MBC (Neisseria gonorrhoeae [7]): 8 µg/mL (≈ 33.4 µM); MIC (Cryptococcus neoformans [9]): 16 µg/mL (≈ 66.9 µM); MIC (Staphylococcus aureus [11]): > 64 µg/mL; MIC (Enterobacter cloacae [13]): > 64 µg/mL; MIC [15]: > 64 µg/mL; MFC (Cryptococcus neoformans [16]): 16 µg/mL (≈ 66.9 µM); MIC (Candida albicans [19]): 32 µg/mL (≈ 134 µM); MIC (Micrococcus luteus [20]): > 64 µg/mL; MFC (Candida albicans [21]): 32 µg/mL (≈ 134 µM); GI50 (SF-295; SF-295, 48 h): 1.3 µg/mL (≈ 5.43 µM); MIC (Streptococcus pneumoniae [22]): > 64 µg/mL; MIC (Escherichia coli [24]): > 64 µg/mL
COc1ccc(/C=C/[N+](=O)[O-])cc1	2 µg/mL (≈ 11.2 µM)	0.78 µg	inactive	1.56 µg	> 64 µg/mL	12.5 µg	inactive	6.25 µg	1.8 µg/mL (≈ 10 µM)	12.5 µg	1.7 µg/mL (≈ 9.49 µM)	5.7 µM	1.7 µg/mL (≈ 9.49 µM)	3.12 µg	50 µg	6.25 µg	12.5 µg	1.7 µg/mL (≈ 9.49 µM)	1.5 µg/mL (≈ 8.37 µM)	50 µg	GI50 (OVCAR-3): inactive; GI50 (MCF7; MCF7, 48 h): 0.54 µg/mL (≈ 3.01 µM); GI50 (SF-268): inactive; MBC (Neisseria gonorrhoeae [7]): 2 µg/mL (≈ 11.2 µM); MIC (Cryptococcus neoformans [9]): 16 µg/mL (≈ 89.3 µM); MIC (Staphylococcus aureus [11]): > 64 µg/mL; MIC (Enterobacter cloacae [13]): > 64 µg/mL; MIC [15]: > 64 µg/mL; MFC (Cryptococcus neoformans [16]): 16 µg/mL (≈ 89.3 µM); MIC (Candida albicans [19]): 8 µg/mL (≈ 44.6 µM); MIC (Micrococcus luteus [20]): > 64 µg/mL; MFC (Candida albicans [21]): 16 µg/mL (≈ 89.3 µM); GI50 (SF-295; SF-295, 48 h): 1.6 µg/mL (≈ 8.93 µM); MIC (Streptococcus pneumoniae [22]): > 64 µg/mL; MIC (Escherichia coli [24]): > 64 µg/mL
COc1cc(/C=C/[N+](=O)[O-])ccc1O	4 µg/mL (≈ 20.5 µM)	0.78 µg	inactive	3.12 µg	> 64 µg/mL	50 µg	inactive	3.12 µg	1.2 µg/mL (≈ 6.15 µM)	>100 µg	0.34 µg/mL (≈ 1.74 µM)	9.3 µM	0.18 µg/mL (≈ 0.922 µM)	6.25 µg	25 µg	6.25 µg	12.5 µg	0.38 µg/mL (≈ 1.95 µM)	1.1 µg/mL (≈ 5.64 µM)	50 µg	GI50 (OVCAR-3; OVCAR-3, 48 h): 0.48 µg/mL (≈ 2.46 µM); GI50 (MCF7): inactive; GI50 (SF-268): inactive; MBC (Neisseria gonorrhoeae [7]): 4 µg/mL (≈ 20.5 µM); MIC (Cryptococcus neoformans [9]): 16 µg/mL (≈ 82 µM); MIC (Staphylococcus aureus [11]): > 64 µg/mL; MIC (Enterobacter cloacae [13]): > 64 µg/mL; MIC [15]: > 64 µg/mL; MFC (Cryptococcus neoformans [16]): 16 µg/mL (≈ 82 µM); MIC (Candida albicans [19]): 16 µg/mL (≈ 82 µM); MIC (Micrococcus luteus [20]): > 64 µg/mL; MFC (Candida albicans [21]): 16 µg/mL (≈ 82 µM); GI50 (SF-295; SF-295, 48 h): 0.37 µg/mL (≈ 1.9 µM); MIC (Streptococcus pneumoniae [22]): > 64 µg/mL; MIC (Escherichia coli [24]): > 64 µg/mL
COc1cc(/C=C/[N+](=O)[O-])cc2c1OCO2	> 64 µg/mL	1.56 µg	inactive	3.12 µg	> 64 µg/mL	>100 µg	inactive	>100 µg	–	>100 µg	–	5.6 µM	–	1.56 µg	>100 µg	>100 µg	>100 µg	–	–	>100 µg	GI50 (OVCAR-3): inactive; GI50 (MCF7): inactive; GI50 (SF-268): inactive; GI50 (BXPC-3): inactive; MIC (Cryptococcus neoformans [9]): 64 µg/mL (≈ 287 µM); GI50 (NCI-H460): inactive; ED50 (P388): inactive; MIC (Staphylococcus aureus [11]): > 64 µg/mL; MIC (Enterobacter cloacae [13]): > 64 µg/mL; MIC [15]: > 64 µg/mL; MFC (Cryptococcus neoformans [16]): > 64 µg/mL; MIC (Candida albicans [19]): > 64 µg/mL; GI50 (DU-145): inactive; MIC (Micrococcus luteus [20]): > 64 µg/mL; GI50 (SF-295): inactive; MIC (Streptococcus pneumoniae [22]): > 64 µg/mL; GI50 (KM-20L2): inactive; MIC (Escherichia coli [24]): > 64 µg/mL
CCOc1ccc(/C=C/[N+](=O)[O-])cc1	–	0.78 µg	inactive	1.56 µg	–	>100 µg	inactive	12.5 µg	1.2 µg/mL (≈ 6.21 µM)	>100 µg	1.9 µg/mL (≈ 9.83 µM)	5.5 µM	3.8 µg/mL (≈ 19.7 µM)	3.12 µg	50 µg	>100 µg	25 µg	2.2 µg/mL (≈ 11.4 µM)	2.4 µg/mL (≈ 12.4 µM)	50 µg	GI50 (OVCAR-3): inactive; GI50 (MCF7; MCF7, 48 h): 1.1 µg/mL (≈ 5.69 µM); GI50 (SF-268; SF-268, 48 h): 1.8 µg/mL (≈ 9.32 µM); GI50 (SF-295): inactive
COc1ccc(/C=C/[N+](=O)[O-])cc1OP(=O)([O-])[O-].[Na+].[Na+]	–	50 µg	inactive	>100 µg	–	>100 µg	inactive	>100 µg	> 10 µg/mL	>100 µg	5.8 µg/mL	18 µM	5.7 µg/mL	>100 µg	>100 µg	>100 µg	>100 µg	4 µg/mL	> 10 µg/mL	>100 µg	GI50 (OVCAR-3): inactive; GI50 (MCF7; MCF7, 48 h): 4.3 µg/mL; GI50 (SF-268; SF-268, 48 h): 4.2 µg/mL; GI50 (SF-295): inactive
